Test results as given in ChEMBL document CHEMBL1671750, “Emergence and molecular characterization of extensively drug-resistant Mycobacterium tuberculosis clinical isolates from the Delhi Region in India” (2010).
≈ marks a conversion by molar mass, not a printed value. Calls of active or inactive are those of the source. The rule behind the calls is not given here.

What was measured:
[1] = tested on: Mycobacterium tuberculosis; test: Antimycobacterial activity against extensively drug-resistant Mycobacterium tuberculosis isolate 2301 obtained from sputum of patient at 1 ug/ml by Bactec MGIT960 modified proportion method; format: functional, organism-based
[2] = tested on: Mycobacterium tuberculosis; test: Antimycobacterial activity against extensively drug-resistant Mycobacterium tuberculosis isolate 2911 obtained from sputum of patient at 1 ug/ml by Bactec MGIT960 modified proportion method; format: functional, organism-based
[3] = tested on: Mycobacterium tuberculosis; test: Antimycobacterial activity against extensively drug-resistant Mycobacterium tuberculosis isolate 2474 obtained from sputum of patient at 1 ug/ml by Bactec MGIT960 modified proportion method; format: functional, organism-based
[4] = tested on: Mycobacterium tuberculosis; test: Antimycobacterial activity against extensively drug-resistant Mycobacterium tuberculosis isolate 625 horboring rpoB S531L/G566R/I569L, katG S315T/R463L, gyrA A90V/S95T, rrs A1401G by CLSI method; format: functional
[5] = tested on: Mycobacterium tuberculosis; test: Antimycobacterial activity against extensively drug-resistant Mycobacterium tuberculosis isolate 761 horboring rpoB S531L/Q510P, katG S315T/R463L, gyrA D94N/S95T, rrs G1484T by CLSI method; format: functional
[6] = tested on: Mycobacterium tuberculosis; test: Antimycobacterial activity against extensively drug-resistant Mycobacterium tuberculosis isolate 2301 horboring rpoB S531L, katG R463L/E217G, gyrA D94N/S95T, rrs A1401G by CLSI method; format: functional
[7] = tested on: Mycobacterium tuberculosis; test: Antimycobacterial activity against extensively drug-resistant Mycobacterium tuberculosis isolate 2474 horboring rpoB H526Y, katG D329A/R463L, gyrA D94G/S95T, rrs A1401G by CLSI method; format: functional
[8] = tested on: Mycobacterium tuberculosis; test: Antimycobacterial activity against extensively drug-resistant Mycobacterium tuberculosis isolate 2911 horboring rpoB D516V, katG S315T/R463L, gyrA D94G/S95T/R128S/Y129C, rrs A1401G by CLSI method; format: functional
[9] = tested on: Mycobacterium tuberculosis; test: Antimycobacterial activity against extensively drug-resistant Mycobacterium tuberculosis H37Rv by CLSI method; format: functional
[10] = tested on: Mycobacterium tuberculosis; test: Antimycobacterial activity against extensively drug-resistant Mycobacterium tuberculosis isolate 625 obtained from sputum of patient at 1 ug/ml by Bactec MGIT960 modified proportion method; format: functional, organism-based
[11] = tested on: Mycobacterium tuberculosis; test: Antimycobacterial activity against extensively drug-resistant Mycobacterium tuberculosis isolate 761 obtained from pus of patient at 1 ug/ml by Bactec MGIT960 modified proportion method; format: functional, organism-based
[12] = tested on: Mycobacterium tuberculosis; test: Antimycobacterial activity against extensively drug-resistant Mycobacterium tuberculosis isolate 2403 obtained from sputum of patient at 1 ug/ml by Bactec MGIT960 modified proportion method; format: functional, organism-based
[13] = tested on: Mycobacterium tuberculosis; test: Antimycobacterial activity against extensively drug-resistant Mycobacterium tuberculosis isolate 2403 obtained from sputum of patient at 2 ug/ml by Bactec MGIT960 modified proportion method; format: functional, organism-based
[14] = tested on: Mycobacterium tuberculosis; test: Antimycobacterial activity against extensively drug-resistant Mycobacterium tuberculosis isolate 2301 obtained from sputum of patient at 2 ug/ml by Bactec MGIT960 modified proportion method; format: functional, organism-based
[15] = tested on: Mycobacterium tuberculosis; test: Antimycobacterial activity against extensively drug-resistant Mycobacterium tuberculosis isolate 2911 obtained from sputum of patient at 2 ug/ml by Bactec MGIT960 modified proportion method; format: functional, organism-based
[16] = tested on: Mycobacterium tuberculosis; test: Antimycobacterial activity against extensively drug-resistant Mycobacterium tuberculosis isolate 2474 obtained from sputum of patient at 2 ug/ml by Bactec MGIT960 modified proportion method; format: functional, organism-based
[17] = tested on: Mycobacterium tuberculosis; test: Antimycobacterial activity against extensively drug-resistant Mycobacterium tuberculosis isolate 625 obtained from sputum of patient at 2 ug/ml by Bactec MGIT960 modified proportion method; format: functional, organism-based
[18] = tested on: Mycobacterium tuberculosis; test: Antimycobacterial activity against extensively drug-resistant Mycobacterium tuberculosis isolate 761 obtained from pus of patient at 2 ug/ml by Bactec MGIT960 modified proportion method; format: functional, organism-based
[19] = tested on: Mycobacterium tuberculosis; test: Antimycobacterial activity against extensively drug-resistant Mycobacterium tuberculosis isolate 2403 obtained from sputum of patient at 5 ug/ml by Bactec MGIT960 modified proportion method; format: functional, organism-based
[20] = tested on: Mycobacterium tuberculosis; test: Antimycobacterial activity against extensively drug-resistant Mycobacterium tuberculosis isolate 2301 obtained from sputum of patient at 5 ug/ml by Bactec MGIT960 modified proportion method; format: functional, organism-based
[21] = tested on: Mycobacterium tuberculosis; test: Antimycobacterial activity against extensively drug-resistant Mycobacterium tuberculosis isolate 2911 obtained from sputum of patient at 5 ug/ml by Bactec MGIT960 modified proportion method; format: functional, organism-based
[22] = tested on: Mycobacterium tuberculosis; test: Antimycobacterial activity against extensively drug-resistant Mycobacterium tuberculosis isolate 2474 obtained from sputum of patient at 5 ug/ml by Bactec MGIT960 modified proportion method; format: functional, organism-based
[23] = tested on: Mycobacterium tuberculosis; test: Antimycobacterial activity against extensively drug-resistant Mycobacterium tuberculosis isolate 761 obtained from pus of patient at 5 ug/ml by Bactec MGIT960 modified proportion method; format: functional, organism-based

| SMILES | Activity [1] | Activity [2] | Activity [3] | MIC [4] | MIC [5] | MIC [6] | MIC [7] | MIC [8] | MIC [9] | Activity [11] | Activity [12] | further results |
| --- | --- | --- | --- | --- | --- | --- | --- | --- | --- | --- | --- | --- |
| CO[C@H]1/C=C/O[C@@]2(C)Oc3c(C)c(O)c4c(O)c(c(/C=N/N5CCN(C)CC5)c(O)c4c3C2=O)NC(=O)/C(C)=C\C=C\[C@H](C)[C@H](O)[C@@H](C)[C@@H](O)[C@@H](C)[C@H](OC(C)=O)[C@@H]1C [RIFAMPIN] | inactive | inactive | inactive | >16 µg/mL | >16 µg/mL | >16 µg/mL | >16 µg/mL | 16 µg/mL (≈ 19.4 µM) | 0.25 µg/mL (≈ 0.304 µM) | inactive | inactive | Activity [10]: inactive |
| NCC[C@H](O)C(=O)N[C@@H]1C[C@H](N)[C@@H](O[C@H]2O[C@H](CN)[C@@H](O)[C@H](O)[C@H]2O)[C@H](O)[C@H]1O[C@H]1O[C@H](CO)[C@@H](O)[C@H](N)[C@H]1O [AMIKACIN] | inactive | inactive | inactive | >16 µg/mL | 16 µg/mL (≈ 27.3 µM) | >16 µg/mL | >16 µg/mL | >16 µg/mL | 0.5 µg/mL (≈ 0.854 µM) | inactive | inactive |  |
| CN[C@@H]1[C@H](O[C@H]2[C@H](O[C@H]3[C@H](O)[C@@H](O)[C@H](N=C(N)N)[C@@H](O)[C@@H]3N=C(N)N)O[C@@H](C)[C@]2(O)C=O)O[C@@H](CO)[C@H](O)[C@H]1O [STREPTOMYCIN] | inactive | inactive | inactive | 16 µg/mL (≈ 27.5 µM) | 0.125 µg/mL (≈ 0.215 µM) | 0.5 µg/mL (≈ 0.86 µM) | >16 µg/mL | >16 µg/mL | 1 µg/mL (≈ 1.72 µM) | Active | inactive |  |
| CC1COc2c(N3CCN(C)CC3)c(F)cc3c(=O)c(C(=O)O)cn1c23 (stereo not drawn) [OFLOXACIN] |  |  |  | 16 µg/mL (≈ 44.3 µM) | 16 µg/mL (≈ 44.3 µM) | 8 µg/mL (≈ 22.1 µM) | 8 µg/mL (≈ 22.1 µM) | 8 µg/mL (≈ 22.1 µM) | 0.5 µg/mL (≈ 1.38 µM) |  |  | Activity [13]: inactive; Activity [14]: inactive; Activity [15]: inactive; Activity [16]: inactive; Activity [17]: inactive; Activity [18]: inactive |
| CC[C@@H](CO)NCCN[C@@H](CC)CO [ETHAMBUTOL] |  |  |  | 4 µg/mL (≈ 19.6 µM) | 8 µg/mL (≈ 39.2 µM) | 2 µg/mL (≈ 9.79 µM) | 4 µg/mL (≈ 19.6 µM) | 4 µg/mL (≈ 19.6 µM) | 1 µg/mL (≈ 4.89 µM) |  |  | Activity [19]: inactive; Activity [20]: inactive; Activity [21]: inactive; Activity [22]: inactive; Activity [23]: Active |
| N[C@@H]1CONC1=O [CYCLOSERINE] |  |  |  | 16 µg/mL (≈ 157 µM) | >16 µg/mL | 16 µg/mL (≈ 157 µM) | 16 µg/mL (≈ 157 µM) | 16 µg/mL (≈ 157 µM) | 8 µg/mL (≈ 78.4 µM) |  |  |  |
